# Measurements published in ChEMBL document CHEMBL1201862, “PubChem BioAssay data set” (2004).
# Active and inactive are the calls of the source. For most assays here, no stated cut-off is given here; in the data, actives have a measured EC50 and inactives only a lower limit.
# Assays:
# [1] = target: Glyceraldehyde-3-phosphate dehydrogenase (Homo sapiens, UniProt P04406)
# Bcl-2-related protein A1 [2] = target: T1, Bcl-2-related protein A1 (Mus musculus, UniProt Q07440); test: small-molecule antagonists of Bfl-1/BH3 interaction – biochemical, TR-FRET, mouse Bfl-1, confirmation (AID 621);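 further: TR-FRET binding of GST-Bfl-1 to FITC-labelled Bid peptide via terbium antibody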
# T1 sequence (Q07440 whole entry): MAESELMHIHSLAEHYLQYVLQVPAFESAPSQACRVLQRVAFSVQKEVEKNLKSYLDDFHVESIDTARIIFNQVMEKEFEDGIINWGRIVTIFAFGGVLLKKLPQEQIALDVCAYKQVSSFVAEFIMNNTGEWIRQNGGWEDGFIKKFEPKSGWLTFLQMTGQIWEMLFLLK
# Bcl-2-related protein A1 [3] = target: T1, Bcl-2-related protein A1; test: Bfl-1 binding inhibitors, SAR follow-up, biochemical, fluorescence polarization (AID 1070)
# [4] = target: Sphingosine 1-phosphate receptor 2 (Homo sapiens, UniProt O95136); test: Dose Response Cell-Based Assay for Agonists of the Sphingosine 1-Phosphate Receptor 2 (S1P2): Purchased Analogues. [Related pubchem assays: 1192, 373, 439 ]; type: functional
# [5] = target: Sphingosine 1-phosphate receptor 1 (Homo sapiens, UniProt P21453); test: Dose Response Cell-Based Assay for Agonists of the Sphingosine 1-Phosphate Receptor 1 (S1P1): Purchased Analogues. [Related pubchem assays: 1192, 373, 439 ]; type: functional
# [6] = target: Sphingosine 1-phosphate receptor 3 (Homo sapiens, UniProt Q99500); test: Dose Response Cell-Based Assay for Agonists of the Sphingosine 1-Phosphate Receptor 3 (S1P3): Purchased Analogues. [Related pubchem assays: 373, 439 ]; type: functional
# Cytochrome P450 2C9 = Cytochrome P450 2C9 (Homo sapiens, UniProt P11712); conditions: Potency
# Cytochrome P450 2C19 = Cytochrome P450 2C19 (Homo sapiens, UniProt P33261); test: qHTS Assay for Inhibitors and Substrates of Cytochrome P450 2C19. [Related pubchem assays: 410 ]; type: ADME; conditions: read-out: Potency
# H4 = test: Luminescence Cell-Based Dose Response HTS to Identify Activators of 5'UTR Stem-Loop Driven Prion Protein mRNA Translation in H4 Neuroglioblastoma Cells. [Related pubchem assays: 1829 (Project Summary), 1814 (Primary HTS)]; type: functional; conditions: Homo sapiens
# [7] = Luminescence Cell-Based Dose Confirmation to Identify Activators of 5'UTR Stem-Loop Driven Alpha-Synuclein mRNA Translation in H4 Neuroglioblastoma Cells. [Related pubchem assays: 1829 (Project Summary), 1814 (Primary HTS)]; type: functional
# [8] = Luminescence Cell-Based Dose Confirmation HTS to Identify Activators of 5'UTR Stem-Loop Driven Alpha-Synuclein mRNA Translation in H4 Neuroglioblastoma Cells. [Related pubchem assays: 1829 (Project Summary), 1814 (Primary HTS)]; type: functional
# [9] = Luminescence Cell-Based Dose Response to Identify Activators of Luciferase Translation or Activity in H4-C Neuroglioblastoma Cells. [Related pubchem assays: 1829 (Project Summary), 1814 (Primary HTS)]; type: functional
# [10] = Luminescence Cell-Based Dose Response to Identify Activators of 5'UTR Stem-Loop Driven Prion Protein mRNA Translation in H4-C Neuroglioblastoma Cells. [Related pubchem assays: 1829 (Project Summary), 1814 (Primary HTS)]; type: functional
# Streptococcus = test: GAS UMAA2166 growth inhibition – luminescence, BacTiterGlo, counter-screen for streptokinase expression inhibitor project, dose response (AID 1915); type: functional, organism-based;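 further: potency for reduction of bacterial viability or growth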
# [11] = system: Streptococcus sp. 'group A'; test: Streptococcus pyogenes SK(-)GAS viability under kanamycin – luminescence, BacTiterGlo, confirmation, counter-screen for streptokinase expression inhibitor project, dose response (AID 1900); type: functional, organism-based
# [12] = NIH3T3 cell viability loss – ATP luminescence, mouse fibroblasts, counter-screen, dose response (AID 2010); type: functional, cell-based;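 further: cells exposed to compound for about 90 hours before reading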
# [13] = Trypanosoma cruzi growth suppression in host cells – NIH3T3 host cells, beta-gal luminescence, confirmation (AID 2044); type: functional, cell-based;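 further: intracellular parasites grown in NIH/3T3 mouse fibroblasts as host cells; luminescent beta-galactosidase reporter signal from transgenic T. cruzi replicating inside host cells; inhibitors lower the luminescence signal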
# Streptokinase A = target: T2, Streptokinase A (Streptococcus pyogenes serotype M1, UniProt P10520); test: viability-normalized secreted streptokinase activity reduction – plasminogen activation absorbance, OD405, dose response (AID 1914); type: functional, Streptococcus pyogenes M1 GAS;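 further: secreted streptokinase activity via plasminogen activation per viability signal from cell pellet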
# T2 sequence (P10520 whole entry): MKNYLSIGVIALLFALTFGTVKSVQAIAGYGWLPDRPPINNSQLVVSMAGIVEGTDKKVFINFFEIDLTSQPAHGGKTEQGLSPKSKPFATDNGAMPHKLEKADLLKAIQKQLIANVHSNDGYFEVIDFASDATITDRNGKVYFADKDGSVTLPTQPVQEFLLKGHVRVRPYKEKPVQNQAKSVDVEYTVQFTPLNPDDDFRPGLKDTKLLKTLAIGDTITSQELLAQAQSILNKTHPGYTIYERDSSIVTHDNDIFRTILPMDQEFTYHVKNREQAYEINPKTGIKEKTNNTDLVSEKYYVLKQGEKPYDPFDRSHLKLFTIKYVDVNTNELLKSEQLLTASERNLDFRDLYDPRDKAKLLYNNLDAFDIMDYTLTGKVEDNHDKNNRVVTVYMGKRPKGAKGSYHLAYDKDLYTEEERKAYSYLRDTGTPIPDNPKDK
# Vero = test: mammalian cell viability reduction – secondary assay, cytotoxicity control for West Nile virus antiviral project, dose response (AID 1650); type: functional; conditions: Chlorocebus sabaeus
# Sphingosine 1-phosphate receptor 2, sequence (O95136 whole entry): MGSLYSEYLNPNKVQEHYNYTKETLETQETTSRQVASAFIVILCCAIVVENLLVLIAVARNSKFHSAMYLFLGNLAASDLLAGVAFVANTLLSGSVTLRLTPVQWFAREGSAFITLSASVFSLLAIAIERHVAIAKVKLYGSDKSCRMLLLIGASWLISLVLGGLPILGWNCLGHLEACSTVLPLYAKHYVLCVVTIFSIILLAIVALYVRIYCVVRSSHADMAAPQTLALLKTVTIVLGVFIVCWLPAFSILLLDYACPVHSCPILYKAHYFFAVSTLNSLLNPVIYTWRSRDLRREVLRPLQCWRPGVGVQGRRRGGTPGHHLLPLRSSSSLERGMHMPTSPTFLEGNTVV
# Cytochrome P450 2C9, sequence (P11712 whole entry): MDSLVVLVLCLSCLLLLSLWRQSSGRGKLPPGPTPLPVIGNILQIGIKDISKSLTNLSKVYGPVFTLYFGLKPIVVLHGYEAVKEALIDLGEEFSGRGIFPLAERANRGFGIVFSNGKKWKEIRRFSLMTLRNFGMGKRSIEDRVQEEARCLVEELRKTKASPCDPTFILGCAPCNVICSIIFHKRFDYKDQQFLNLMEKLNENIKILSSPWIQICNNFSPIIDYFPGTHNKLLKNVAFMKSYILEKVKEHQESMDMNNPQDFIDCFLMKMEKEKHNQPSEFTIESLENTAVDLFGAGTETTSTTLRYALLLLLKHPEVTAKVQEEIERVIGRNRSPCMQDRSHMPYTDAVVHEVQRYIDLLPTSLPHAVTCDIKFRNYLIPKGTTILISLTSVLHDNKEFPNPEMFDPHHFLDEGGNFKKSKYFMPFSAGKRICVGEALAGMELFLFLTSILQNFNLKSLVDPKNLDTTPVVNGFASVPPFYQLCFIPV
# Sphingosine 1-phosphate receptor 3, sequence (Q99500 whole entry): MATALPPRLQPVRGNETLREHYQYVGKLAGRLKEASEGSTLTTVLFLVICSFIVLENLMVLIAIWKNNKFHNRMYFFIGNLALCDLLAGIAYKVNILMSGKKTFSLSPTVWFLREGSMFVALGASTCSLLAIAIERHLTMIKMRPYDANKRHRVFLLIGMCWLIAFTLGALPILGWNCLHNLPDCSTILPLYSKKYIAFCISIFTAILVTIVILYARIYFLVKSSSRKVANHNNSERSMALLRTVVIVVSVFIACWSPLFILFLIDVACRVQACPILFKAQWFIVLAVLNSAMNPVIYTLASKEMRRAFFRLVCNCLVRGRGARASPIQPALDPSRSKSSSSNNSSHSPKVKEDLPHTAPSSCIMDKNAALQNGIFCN
# Cytochrome P450 2C19, sequence (P33261 whole entry): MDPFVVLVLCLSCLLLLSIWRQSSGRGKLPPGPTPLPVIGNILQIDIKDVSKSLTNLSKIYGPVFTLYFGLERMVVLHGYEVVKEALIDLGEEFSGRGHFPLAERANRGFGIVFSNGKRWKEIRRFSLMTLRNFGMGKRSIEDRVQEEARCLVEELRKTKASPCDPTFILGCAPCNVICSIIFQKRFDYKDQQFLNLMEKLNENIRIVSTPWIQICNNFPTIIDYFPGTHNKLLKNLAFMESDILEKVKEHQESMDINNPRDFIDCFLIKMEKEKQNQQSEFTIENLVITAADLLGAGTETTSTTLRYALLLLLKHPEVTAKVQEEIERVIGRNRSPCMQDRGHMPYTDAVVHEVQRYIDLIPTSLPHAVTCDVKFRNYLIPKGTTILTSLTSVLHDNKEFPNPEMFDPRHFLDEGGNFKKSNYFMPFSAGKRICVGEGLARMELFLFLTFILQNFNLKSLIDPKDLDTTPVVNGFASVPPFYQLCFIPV
# Glyceraldehyde-3-phosphate dehydrogenase, sequence (P04406 whole entry): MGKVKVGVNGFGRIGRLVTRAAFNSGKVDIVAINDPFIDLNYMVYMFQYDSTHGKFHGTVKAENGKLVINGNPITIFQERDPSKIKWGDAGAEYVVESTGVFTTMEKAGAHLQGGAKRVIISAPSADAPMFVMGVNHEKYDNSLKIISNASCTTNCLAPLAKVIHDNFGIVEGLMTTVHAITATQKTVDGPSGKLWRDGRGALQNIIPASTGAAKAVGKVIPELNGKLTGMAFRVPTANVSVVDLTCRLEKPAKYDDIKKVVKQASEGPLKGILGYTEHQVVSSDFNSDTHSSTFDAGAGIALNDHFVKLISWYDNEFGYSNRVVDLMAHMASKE
# Sphingosine 1-phosphate receptor 1, sequence (P21453 whole entry): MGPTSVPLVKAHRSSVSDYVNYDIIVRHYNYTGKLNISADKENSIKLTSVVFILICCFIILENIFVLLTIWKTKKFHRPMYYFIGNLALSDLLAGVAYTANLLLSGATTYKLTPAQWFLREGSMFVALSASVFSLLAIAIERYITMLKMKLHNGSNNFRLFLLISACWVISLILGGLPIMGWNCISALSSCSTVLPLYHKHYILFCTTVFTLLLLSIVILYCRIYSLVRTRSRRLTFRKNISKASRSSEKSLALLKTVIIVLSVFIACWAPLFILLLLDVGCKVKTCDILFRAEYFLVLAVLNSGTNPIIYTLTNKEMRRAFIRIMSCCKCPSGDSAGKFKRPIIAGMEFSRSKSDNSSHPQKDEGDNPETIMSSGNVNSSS
structure (smiles),measurement,setting,value
O=C1C(Cl)=C(N2CCN(c3cccc(C(F)(F)F)c3)CC2)C(=O)N1c1ccc(Cl)c(Cl)c1,IC50,[1],> 100 µM (not active)
same,IC50,Bcl-2-related protein A1 [2],> 100 µM (not active)
same,IC50,Bcl-2-related protein A1 [3],> 100 µM (not active)
O=C(NC1CCCCC1)c1cc(-c2ccccc2)on1,EC50,[4],> 10 µM (not active)
same,EC50,[5],0.897 µM (active)
same,EC50,[6],> 50 µM (not active)
COc1ccc(C(=O)[C@H]2[C@H]3[C@@H](C(=O)[C@@H]4OC[C@H]3O4)[C@H]3C=Cc4ccccc4N32)c(OC)c1,AC50,Cytochrome P450 2C9,31.6 µM (inconclusive)
same,AC50,Cytochrome P450 2C19,31.6 µM (inconclusive)
CCc1cc2c(=O)n3c(nc2s1)-c1[nH]c2ccc(OC)cc2c1CC3,EC50,H4,3.18 µM (active)
same,EC50,[7],0.498 µM (active)
same,EC50,[8],< 0.1 µM (active)
same,EC50,[9],0.354 µM (active)
same,EC50,[10],> 12 µM (not active)
O=C(Nc1ccc(OC(F)(F)F)cc1)N1CCN(c2ccnc3cc(Cl)ccc23)CC1,EC50,Streptococcus,> 150 µM (not active)
same,EC50,[11],9.61 µM (active)
same,EC50,[12],14.4 µM (active)
same,EC50,[13],2.06 µM (active)
same,EC50,Streptokinase A,12.7 µM (active)
same,CC50,Vero,2.95 µM (active)
